Reference: PubChem BioAssay AID2060512 (Molecular Pharmacology Branch, DTP, NCI, 2025)

Tested on: 186277-243-T-J2-PDC complex spheroid viability
Assay: Anticancer human tumor 186277-243-T-J2-PDC patient-derived colon adenocarcinoma cell line growth inhibition [GQUAD]
Details: for IC50: curve of first compound; for viability, T/C: stronger effect = lower value
From the text: DNA G-quadruplex Stabilizer Agents in Combinations in Complex Spheroids
A high-throughput screen of multi-cell type tumor spheroids was designed to identify active combinations of DNA G-quadruplex stabilizer agents and targeted small molecules. Complex spheroids include a stromal component modeled by human endothelial cells (HUVEC) and fibroblasts modeled by human mesenchymal stem cells (MSCs). The concentration ranges selected for each drug and investigational agent were based upon clinically achievable concentrations if the clinical Cmax of the agent was known.
Compounds. The drugs and investigational agents: pidnarulex (CX-5461; NSC782164), APTO-253 (NSC789042), BRACO-19 (NSC847499), peposertib (NSC802822), ceralasertib (NSC780249), elimusertib (NSC800525), camonsertib (NSC841442), AZD-1390 (NSC803789), olaparib (NSC753686), talazoparib (NSC767125), ART-558 (NSC835418), sotorasib (NSC818433), MRTX-1133 (NSC836407), SN-38 (NSC673596), topotecan (NSC609699), etoposide (NSC141540), doxorubicin (NSC123127), gemcitabine (NSC613327), 5-fluorouracil (NSC19893), paclitaxel (NSC125973), vemurafenib (NSC761431), panobinostat (NSC761190), R-306465 (JNJ-16241199; NSC773264), adavosertib (NSC754352), TP-3654 (NSC805149), carboplatin (NSC241240), KSQ-4279 (NSC840948), and staurosporine (NSC755774) were obtained from the National Cancer Institute (NCI) Developmental Therapeutics Program Chemical Repository (34). The FDA-approved anticancer drug set is available from the NCI Developmental Therapeutics Program. […] The stock solutions were prepared in dimethyl sulfoxide (DMSO, Sigma-Aldrich, St. Louis, MO, cat. D2650) at 800-fold the tested concentration and stored at -70 degrees C prior to their use. All drugs and investigational agents were tested over a range starting from a high concentration at or near the clinical Cmax and decreasing in half-log increments. If the clinical Cmax for an agent had not been determined, the highest concentration tested was 10 microM.
2.3 Cell Culture. All cells were maintained in an incubator at 37 degrees C and 5% CO2 with 95% humidity. The PDC lines were cultured according to standard operating procedures established by the NCI PDMR. All PDCs were thawed and cultured in Matrigel-coated flasks prepared with a working solution of 1X Ham's F-12 nutrient mix, without supplementation (Invitrogen, cat. 11765054), 100 U/mL penicillin-streptomycin (Invitrogen, cat. 15140122), and 2.5% Matrigel (Corning Inc., cat. 354248) for the first three passages. The 857933-349-R-J2-PDC line was cultured in 6C/Colon 1B media, which includes advanced DMEM/F-12 (Thermo Fisher Scientific, cat. 12634028), 10 mM HEPES (Thermo Fisher Scientific, cat. 15630080), 1X GlutaMAX supplement (Thermo Fisher Scientific, cat. 35050061), 0.1 mg/mL primocin (InvivoGen, cat. ant-pm-2), 10% defined fetal bovine serum, heat inactivated (HyClone Laboratories Inc., cat. SH30070.03HI), 50% L-WRN conditioned media (ATCC, cat. CRL-3276), 1.25 mM N-Acetyl-L-cysteine (Sigma-Aldrich, cat. A9165), 10 mM nicotinamide (Sigma-Aldrich, cat. N0636), 1X B-27 supplement (Thermo Fisher Scientific, cat. 17504044), 1X N-2 supplement (Thermo Fisher Scientific, cat. 17502048), 10 microM Y-27632 dihydrochloride (Tocris Bioscience, cat. 1254), and 50 ng/mL human EGF recombinant protein (Thermo Fisher Scientific, cat. PHG0311). The 485176-168-R4-J1-PDC line was cultured in Panc media, which includes all 6C/Colon 1B media components plus 100 ng/mL human FGF-10 (Thermo Fisher Scientific, cat. 100-26), 500 nM SB-431542 (Selleckchem, cat. S1067), and gastrin (Tocris, cat. 3006).
[…]

[1] = second compound 0.0316 µM, first compound 0.0316 µM
[2] = second compound 0.0316 µM, first compound 0.316 µM
[3] = second compound 0.1 µM, first compound 0.0316 µM
[4] = second compound 0.1 µM, first compound 0.316 µM
[5] = second compound 0.316 µM, first compound 0.0316 µM
[6] = second compound 0.316 µM, first compound 0.316 µM
[7] = second compound 1 µM, first compound 0.0316 µM
[8] = second compound 1 µM, first compound 0.316 µM
[9] = second compound 3.16 µM, first compound 0.0316 µM
[10] = second compound 3.16 µM, first compound 0.316 µM
[11] = second compound 10 µM, first compound 0.0316 µM
[12] = second compound 10 µM, first compound 0.316 µM
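Also: spheroids exposed to drugs for 7 days.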
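For viability, T/C in this document: 100% = DMSO vehicle control viability.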

Nc1ccn(C2OC(CO)C(O)C2(F)F)c(=O)n1 (centres undefined) + Cc1cnc(CNC(=O)c2c(=O)c3ccc(N4CCCN(C)CC4)nc3n3c2sc2ccccc23)cn1 was tested, and the IC50 (second compound 0.0316 µM) was under 31.6 nM, the IC50 (second compound 0.1 µM) was under 31.6 nM and the IC50 (second compound 0.316 µM) was under 31.6 nM. It also gave an IC50 (second compound 1 µM) of under 31.6 nM, an IC50 (second compound 3.16 µM) of under 31.6 nM and an IC50 (second compound 10 µM) of under 31.6 nM. It also gave a viability, T/C [1] of 21.2%, a viability, T/C (second compound 0.0316 µM, first compound 0.1 µM) of 13.3% and a viability, T/C [2] of 12.3%. For the same compound, the viability, T/C (second compound 0.0316 µM, first compound 1 µM) was 11.9%, the viability, T/C (second compound 0.0316 µM, first compound 3.16 µM) was 12.2% and the viability, T/C (second compound 0.0316 µM, first compound 10 µM) was 12.8%. It also gave a viability, T/C [3] of 27.1%, a viability, T/C (second compound 0.1 µM, first compound 0.1 µM) of 17.6% and a viability, T/C [4] of 15.3%. The viability, T/C (second compound 0.1 µM, first compound 1 µM) was 12.9%, the viability, T/C (second compound 0.1 µM, first compound 3.16 µM) was 15.4% and the viability, T/C (second compound 0.1 µM, first compound 10 µM) was 15.9%. It also gave a viability, T/C [5] of 36%, a viability, T/C (second compound 0.316 µM, first compound 0.1 µM) of 28.4% and a viability, T/C [6] of 21.5%. For the same compound, the viability, T/C (second compound 0.316 µM, first compound 1 µM) was 16.8%, the viability, T/C (second compound 0.316 µM, first compound 3.16 µM) was 18.6% and the viability, T/C (second compound 0.316 µM, first compound 10 µM) was 16%. For the same compound, the viability, T/C [7] was 32.6%, the viability, T/C (second compound 1 µM, first compound 0.1 µM) was 30.2% and the viability, T/C [8] was 22.8%. The viability, T/C (second compound 1 µM, first compound 1 µM) was 21.4%, the viability, T/C (second compound 1 µM, first compound 3.16 µM) was 19.9% and the viability, T/C (second compound 1 µM, first compound 10 µM) was 17.7%. For the same compound, the viability, T/C [9] was 33.1%, the viability, T/C (second compound 3.16 µM, first compound 0.1 µM) was 24.8% and the viability, T/C [10] was 22.6%. The viability, T/C (second compound 3.16 µM, first compound 1 µM) was 19.5%, the viability, T/C (second compound 3.16 µM, first compound 3.16 µM) was 19.3% and the viability, T/C (second compound 3.16 µM, first compound 10 µM) was 16.5%. The viability, T/C [11] was 34.3%, the viability, T/C (second compound 10 µM, first compound 0.1 µM) was 25.1% and the viability, T/C [12] was 25.4%. The viability, T/C (second compound 10 µM, first compound 1 µM) was 18.7%, the viability, T/C (second compound 10 µM, first compound 3.16 µM) was 21.4% and the viability, T/C (second compound 10 µM, first compound 10 µM) was 19.2%.
CC[C@@]1(O)C(=O)OCc2c1cc1n(c2=O)Cc2cc3c(CN(C)C)c(O)ccc3nc2-1 + CN(C)c1ccc(Nc2c3ccc(NC(=O)CCN4CCCC4)cc3nc3cc(NC(=O)CCN4CCCC4)ccc23)cc1 showed an IC50 (second compound 0.0316 µM) of over 316 nM, an IC50 (second compound 0.1 µM) of 153 nM and an IC50 (second compound 0.316 µM) of 178 nM. For the same compound, the IC50 (second compound 1 µM) was 206 nM, the IC50 (second compound 3.16 µM) was 209 nM and the IC50 (second compound 10 µM) was 252 nM. The viability, T/C (second compound 0.0316 µM, first compound 0.000999 µM) was 91.1%, the viability, T/C (second compound 0.0316 µM, first compound 0.00316 µM) was 115% and the viability, T/C (second compound 0.0316 µM, first compound 0.00999 µM) was 99.2%. The viability, T/C [1] was 88.3%, the viability, T/C (second compound 0.0316 µM, first compound 0.0999 µM) was 54.4% and the viability, T/C [2] was 50.1%. It also gave a viability, T/C (second compound 0.1 µM, first compound 0.000999 µM) of 91.5%, a viability, T/C (second compound 0.1 µM, first compound 0.00316 µM) of 104% and a viability, T/C (second compound 0.1 µM, first compound 0.00999 µM) of 92.5%. It also gave a viability, T/C [3] of 70.9%, a viability, T/C (second compound 0.1 µM, first compound 0.0999 µM) of 61.1% and a viability, T/C [4] of 36.9%. It also gave a viability, T/C (second compound 0.316 µM, first compound 0.000999 µM) of 93.9%, a viability, T/C (second compound 0.316 µM, first compound 0.00316 µM) of 102% and a viability, T/C (second compound 0.316 µM, first compound 0.00999 µM) of 95.6%. The viability, T/C [5] was 81.4%, the viability, T/C (second compound 0.316 µM, first compound 0.0999 µM) was 59.4% and the viability, T/C [6] was 41.2%. For the same compound, the viability, T/C (second compound 1 µM, first compound 0.000999 µM) was 86.5%, the viability, T/C (second compound 1 µM, first compound 0.00316 µM) was 81.7% and the viability, T/C (second compound 1 µM, first compound 0.00999 µM) was 87.1%. The viability, T/C [7] was 72%, the viability, T/C (second compound 1 µM, first compound 0.0999 µM) was 65.6% and the viability, T/C [8] was 41.2%. It also gave a viability, T/C (second compound 3.16 µM, first compound 0.000999 µM) of 96.8%, a viability, T/C (second compound 3.16 µM, first compound 0.00316 µM) of 99.5% and a viability, T/C (second compound 3.16 µM, first compound 0.00999 µM) of 105%. It also gave a viability, T/C [9] of 74.4%, a viability, T/C (second compound 3.16 µM, first compound 0.0999 µM) of 65.2% and a viability, T/C [10] of 42.5%. The viability, T/C (second compound 10 µM, first compound 0.000999 µM) was 93.8%, the viability, T/C (second compound 10 µM, first compound 0.00316 µM) was 85.7% and the viability, T/C (second compound 10 µM, first compound 0.00999 µM) was 98%. It also gave a viability, T/C [11] of 85.1%, a viability, T/C (second compound 10 µM, first compound 0.0999 µM) of 58.3% and a viability, T/C [12] of 47.9%.
